Data as given in PubChem BioAssay AID248 (DTP/NCI, 2004).
Where “and” joins values, the source holds several entries; their conditions need not be identical. Identical values can stand only once. Toxic doses and inconclusive results are not listed. No stated cut-off is given here; in the data, active means T/C of 150% or more; inactive means T/C below 125%.

System: L1210 leukemia ip in BDF1 mice, survival T/C
Test: NCI In Vivo Anticancer Drug Screen. Data for tumor model L1210 Leukemia (intraperitoneal) in B6D2F1 (BDF1) mice
Details: endpoint: mean survival time, higher = longer survival
How it was run: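 Antitumor effect is assessed in tumor-bearing animals. Survival in the compound arm is compared with a vehicle-dosed control arm and expressed as their quotient.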

[1] = dose: 100.0 mg/kg/injection, schedule: Q04DX002 (ip), vehicle: saline with Tween-80
[2] = dose: 200.0 mg/kg/injection, schedule: Q04DX002 (ip), vehicle: saline with Tween-80
[3] = dose: 400.0 mg/kg/injection, schedule: Q04DX002 (ip), vehicle: saline with Tween-80
[4] = dose: 100.0 mg/kg/injection, schedule: Q01DX001 (ip), vehicle: Klucel (hydroxypropylcellulose) (HPC)
[5] = dose: 200.0 mg/kg/injection, schedule: Q01DX001 (ip), vehicle: Klucel (hydroxypropylcellulose) (HPC)
[6] = dose: 100.0 mg/kg/injection, schedule: Q04DX003 (ip), vehicle: acetone
[7] = dose: 200.0 mg/kg/injection, schedule: Q04DX003 (ip), vehicle: acetone
[8] = dose: 400.0 mg/kg/injection, schedule: Q04DX003 (ip), vehicle: acetone
[9] = dose: 100.0 mg/kg/injection, schedule: Q01DX009 (ip), vehicle: Klucel (hydroxypropylcellulose) (HPC)
[10] = dose: 200.0 mg/kg/injection, schedule: Q01DX009 (ip), vehicle: Klucel (hydroxypropylcellulose) (HPC)
[11] = dose: 400.0 mg/kg/injection, schedule: Q01DX009 (ip), vehicle: Klucel (hydroxypropylcellulose) (HPC)
[12] = dose: 100.0 mg/kg/injection, schedule: Q04DX003 (ip), vehicle: Klucel (hydroxypropylcellulose) (HPC)
[13] = dose: 200.0 mg/kg/injection, schedule: Q04DX003 (ip), vehicle: Klucel (hydroxypropylcellulose) (HPC)
[14] = dose: 400.0 mg/kg/injection, schedule: Q04DX003 (ip), vehicle: Klucel (hydroxypropylcellulose) (HPC)
[15] = dose: 100.0 mg/kg/injection, schedule: Q04DX003 (ip), vehicle: saline with Tween-80
[16] = dose: 200.0 mg/kg/injection, schedule: Q04DX003 (ip), vehicle: saline with Tween-80
[17] = dose: 400.0 mg/kg/injection, schedule: Q04DX003 (ip), vehicle: saline with Tween-80
[18] = dose: 400.0 mg/kg/injection, schedule: Q01DX001 (ip), vehicle: Klucel (hydroxypropylcellulose) (HPC)
[19] = dose: 100.0 mg/kg/injection, schedule: Q01DX009 (ip), vehicle: saline with Tween-80

Measured: T/C

CCSC(=O)N=Nc1ccc(O)cc1
inactive: dose: 50.0 mg/kg/injection, schedule: Q01DX001 (ip), vehicle: saline 103 % of control | dose: 100.0 mg/kg/injection, schedule: Q01DX001 (ip), vehicle: saline 100 % of control | dose: 200.0 mg/kg/injection, schedule: Q01DX001 (ip), vehicle: saline 94 % of control | dose: 400.0 mg/kg/injection, schedule: Q01DX001 (ip), vehicle: saline 111 % of control

O=S(=O)(c1ccccc1)n1c(C(O)c2cccnc2)cc2ccccc21 (centres undefined)
inactive: [1] 93 % of control | [2] 100 % of control | [3] 90 % of control

O=S(C/C=C/CS(=O)c1ccccc1)c1ccccc1 (centres undefined)
inactive: dose: 100.0 mg/kg/injection, schedule: Q04DX002 (ip), vehicle: Klucel (hydroxypropylcellulose) (HPC) 105 % of control | dose: 200.0 mg/kg/injection, schedule: Q04DX002 (ip), vehicle: Klucel (hydroxypropylcellulose) (HPC) 116 % of control | dose: 400.0 mg/kg/injection, schedule: Q04DX002 (ip), vehicle: Klucel (hydroxypropylcellulose) (HPC) 103 % of control

O=C(Nc1ccc(NS(=O)(=O)c2ccccc2)cc1Cl)c1ccccc1
inactive: dose: 50.0 mg/kg/injection, schedule: Q01DX001 (ip), vehicle: Klucel (hydroxypropylcellulose) (HPC) 104 % of control | [4] 108 % of control | [5] 90 % of control

[N-]=[N+]=Nc1c(N=[N+]=[N-])c(NS(=O)(=O)c2ccccc2)c2ccccc2c1NS(=O)(=O)c1ccccc1
inactive: [1] 87 % of control | [2] 97 % of control | [3] 97 % of control

CCCCC(=O)N/N=C/c1cc(OCC)c(OCC)cc1OCC
inactive: dose: 100.0 mg/kg/injection, schedule: Q01DX001 (ip), vehicle: carboxymethylcellulose (CMC) 96 % of control | dose: 200.0 mg/kg/injection, schedule: Q01DX001 (ip), vehicle: carboxymethylcellulose (CMC) 98 % of control | dose: 400.0 mg/kg/injection, schedule: Q01DX001 (ip), vehicle: carboxymethylcellulose (CMC) 91 % of control

Cc1ccc(S(=O)(=O)Nc2cccc3cc(Cl)ccc23)cc1
inactive: [6] 94 % of control | [7] 105 % of control | [8] 91 % of control

O=[N+]([O-])c1ccc(N/N=C/c2ccnc3ccccc23)cc1
inactive: [9] 93 % of control | [10] 91 % of control | [11] 91 % of control

COc1ccccc1NC(=O)OCC#CCOC(=O)Nc1ccccc1OC
inactive: [12] 91 % of control | [13] 95 % of control | [14] 91 % of control

CCCCCCC(=O)/C=C/c1ccc(Cl)cc1Cl
inactive: dose: 100.0 mg/kg/injection, schedule: Q01DX009 (ip), vehicle: acetone 95 % of control | [6] 86 % of control | dose: 200.0 mg/kg/injection, schedule: Q01DX009 (ip), vehicle: acetone 90 % of control | [7] 91 % of control | dose: 400.0 mg/kg/injection, schedule: Q01DX009 (ip), vehicle: acetone 95 % of control | [8] 93 % of control

CC(=O)OCC1CC2CC(O)C1C2 (centres undefined)
inactive: dose: 75.0 mg/kg/injection, schedule: Q01DX001 (ip), vehicle: acetone 102 % of control

C=C(Cl)CSCCO
inactive: [15] 92 % of control | [16] 97 % of control | [17] 97 % of control

Cc1ccc(S(=O)(=O)N=S(CCCl)CCCl)cc1
inactive: dose: 100.0 mg/kg/injection, schedule: Q04DX002 (ip), vehicle: saline 92 % of control | dose: 200.0 mg/kg/injection, schedule: Q04DX002 (ip), vehicle: saline 99 % of control | dose: 400.0 mg/kg/injection, schedule: Q04DX002 (ip), vehicle: saline 101 % of control

Clc1ccc2c(c1)C(=P(c1ccccc1)(c1ccccc1)c1ccccc1)c1cc(Cl)cc(Cl)c1-2
inactive: [4] 96 % of control | [12] 102 % of control | [5] 96 % of control | [13] 95 % of control | [18] 91 % of control | [14] 93 % of control

CC(C(CC(=O)c1ccccc1)c1ccccc1)[N+](=O)[O-] (centres undefined)
inactive: [4] 124 % of control | [15] 98 % of control | [5] 97 % of control | [16] 97 % of control | [18] 96 % of control | [17] 92 % of control

C=CC[N+](CCO)(CCO)CCCCCCCCCCCCCCCCCC
inactive: dose: 12.5 mg/kg/injection, schedule: Q04DX002 (ip), vehicle: saline 102 % of control | dose: 25.0 mg/kg/injection, schedule: Q04DX002 (ip), vehicle: saline 97 % of control

CCCC(C)OS(=O)(=O)c1ccc(Br)cc1 (centres undefined)
inactive: dose: 100.0 mg/kg/injection, schedule: Q01DX009 (ip), vehicle: saline 91 % of control | [1] 97 % of control | dose: 200.0 mg/kg/injection, schedule: Q01DX009 (ip), vehicle: saline 96 % of control | [2] 100 % of control | dose: 400.0 mg/kg/injection, schedule: Q01DX009 (ip), vehicle: saline 86 % of control | [3] 97 % of control

N#Cc1ccccc1.N#Cc1ccccc1.[Cl][Pd][Cl]
inactive: dose: 50.0 mg/kg/injection, schedule: Q01DX009 (ip), vehicle: Klucel (hydroxypropylcellulose) (HPC) 95 % of control | [9] 95 % of control | [12] 94 % of control | [10] 101 % of control | [13] 102 % of control

O=C(c1ccc(O)cc1)c1ccc(O)cc1O
inactive: dose: 100.0 mg/kg/injection, schedule: Q01DX009 (ip), vehicle: saline sonified 93 % of control | dose: 200.0 mg/kg/injection, schedule: Q01DX009 (ip), vehicle: saline sonified 98 % of control | dose: 400.0 mg/kg/injection, schedule: Q01DX009 (ip), vehicle: saline sonified 98 % of control

Cc1ccc(N=Nc2ccc(C)cc2NC(=O)c2ccc(Cl)cc2)cc1
inactive: dose: 50.0 mg/kg/injection, schedule: Q01DX001 (ip), vehicle: saline with Tween-80 100 % of control | dose: 50.0 mg/kg/injection, schedule: Q04DX003 (ip), vehicle: saline with Tween-80 90 % of control | dose: 100.0 mg/kg/injection, schedule: Q01DX001 (ip), vehicle: saline with Tween-80 90 % of control | [19] 93 % of control and 94 % of control | [1] 94 % of control and 90 % of control | [15] 93 % of control | dose: 200.0 mg/kg/injection, schedule: Q01DX009 (ip), vehicle: saline with Tween-80 95 % of control and 97 % of control | [2] 93 % of control and 91 % of control | [16] 93 % of control | dose: 400.0 mg/kg/injection, schedule: Q01DX009 (ip), vehicle: saline with Tween-80 90 % of control and 92 % of control | [3] 87 % of control and 89 % of control | [17] 89 % of control and 90 % of control

CCCN(CCC)CC(C)(C)CO
inactive: dose: 50.0 mg/kg/injection, schedule: Q01DX009 (ip), vehicle: saline with Tween-80 96 % of control | [19] 101 % of control

CCC1(C)C(=O)c2ccccc2N(C)C1=O (centres undefined)
inactive: [1] 104 % of control | [2] 104 % of control

COc1cccc2c1C(=O)c1c(O)c3c(c(O)c1C2=O)CC(O)(/C(C)=N/NC(=O)c1ccccc1)CC3OC1CC(N)C(O)C(C)O1 (centres undefined)
inactive: dose: 200.0 mg/kg/injection, schedule: Q04DX003 (ip), vehicle: water 124 % of control

CCOc1ccc(/C=C(\C#N)c2cccc(Cl)c2)cc1
inactive: [9] 100 % of control | [10] 93 % of control | [11] 91 % of control
